Test: gradient 5% acetonitrile 3 min, to 50% in 2 min, to 85% in 15 min, held 3 min, 100 µL/min
Details: column: Zorbax Extend-C18 2.1 x 50 mm; eluents: water / acetonitrile, 0.1% formic acid
Method in brief: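 Standards, all pure, were combined into mixtures of ~100 molecules and run at 100 μL/min on a Zorbax Extend-C18 column (2.1 × 50 mm, 1.8 μm) with water and acetonitrile, each containing 0.1% formic acid. A coupled quadrupole time-of-flight mass spectrometer operated in positive and negative ionization mode. Retention time values come from computationally picked adduct peaks, each inspected manually.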

Structure (SMILES): CCc1ccc(N2CC(c3noc(-c4ccc5c(c4)OCO5)n3)CC2=O)cc1 (stereo not given)
- RP-LC retention time: 1060 s

Structure (SMILES): Cc1cc(NC(=O)N2CCCC(C)(C(=O)NCc3ccc(F)cc3)C2)ccc1Br (stereo not given)
- RP-LC retention time: 1050 s

Structure (SMILES): O=C(NCCc1c[nH]c2ccccc12)c1nn(-c2ccc(Cl)cc2)nc1CO
- RP-LC retention time: 1020 s

Structure (SMILES): Cc1ccc(CNC(=O)c2nnc(-c3ccc(S(=O)(=O)N4CCOCC4)cc3)o2)o1
- RP-LC retention time: 820 s

Structure (SMILES): CC(C)S(=O)(=O)c1ccc(CC(=O)N2CCCC(c3nnc(C(F)(F)F)o3)C2)cc1 (stereo not given)
- RP-LC retention time: 750 s

Structure (SMILES): O=C(Nc1ccc2cn[nH]c2c1)C1(c2ccccc2)CCOCC1
- RP-LC retention time: 676 s

Structure (SMILES): CS(=O)(=O)N1CCC(c2nnc(-c3ccco3)s2)CC1
- RP-LC retention time: 655 s

Structure (SMILES): O=C(Cn1cnc(-c2cccs2)cc1=O)Nc1ccc(-n2cnnn2)cc1
- RP-LC retention time: 660 s

Structure (SMILES): O=C(Cc1nnc(-c2ccc3ncccc3c2)o1)N1CCN(C2CCCCC2)CC1
- RP-LC retention time: 574 s

Structure (SMILES): CCOc1nc2ccccc2nc1N1CCCC(C(=O)Nc2ccccc2OC)C1 (stereo not given)
- RP-LC retention time: 1250 s

Structure (SMILES): Cc1cccc2nnc(N3CCN(C(=O)c4ccc(Br)cc4)CC3)n12
- RP-LC retention time: 683 s

Structure (SMILES): Cn1c(=O)c2nc(S(=O)(=O)CCC(=O)Nc3ccc(F)c(F)c3)n(C)c2n(C)c1=O
- RP-LC retention time: 758 s

Structure (SMILES): NS(=O)(=O)c1cccnc1Nc1cccc(Cl)c1
- RP-LC retention time: 855 s

Structure (SMILES): CN(C)CCn1c2c(c(SCC(=O)Nc3ccc(F)c(F)c3)nc1=O)CCC2
- RP-LC retention time: 638 s

Structure (SMILES): CCCS(=O)(=O)c1nc2ccc(NS(=O)(=O)c3cc(C)cc(C)c3)cc2s1
- RP-LC retention time: 998 s

Structure (SMILES): CCC(=O)N1CCCC1c1nc2ccccc2n1CC(=O)OC (stereo not given)
- RP-LC retention time: 592 s

Structure (SMILES): CCc1nccn1Cc1noc(-c2ccccc2F)n1
- RP-LC retention time: 613 s

Structure (SMILES): COc1ccc(-c2cc3n(n2)CCCN(C(=O)c2cc4ccccc4[nH]2)C3)cc1
- RP-LC retention time: 893 s

Structure (SMILES): O=C(NCCCn1nc(-c2ccncc2)ccc1=O)C1c2ccccc2Oc2ccccc21
- RP-LC retention time: 629 s

Structure (SMILES): O=C(c1cccc(Br)c1)N1CCc2nc[nH]c2C1
- RP-LC retention time: 595 s

Structure (SMILES): COc1ccc(-c2noc(Cn3ccn4nc(-c5ccccc5)cc4c3=O)n2)cc1
- RP-LC retention time: 1030 s

Structure (SMILES): Cc1cccc(-c2nnc(-c3nc(NCCN4CCOCC4)c4ccccc4n3)o2)c1
- RP-LC retention time: 662 s

Structure (SMILES): CCc1ccccc1NC(=O)Cc1csc2nc(-c3ccccc3)cn12
- RP-LC retention time: 845 s

Structure (SMILES): CCCn1ccc2sc(C)c(C(=O)NCc3cccc(OC)c3)c2c1=O
- RP-LC retention time: 856 s

Structure (SMILES): CCC(C)C(NC(=O)c1ccc(C)cc1)C(=O)Nc1nc2ccccc2[nH]1 (stereo not given)
- RP-LC retention time: 765 s

Structure (SMILES): Cc1cc(C2CCCN2C(=O)Nc2ccc(C)c(C)c2)no1 (stereo not given)
- RP-LC retention time: 857 s

Structure (SMILES): COc1ccc(S(=O)(=O)Nc2ccc3c(c2)CCC(=O)N3CC(C)C)cc1
- RP-LC retention time: 832 s

Structure (SMILES): CSc1cccc(Nc2c(C(=O)N3CCSCC3)cnc3nc(C)ccc23)c1
- RP-LC retention time: 581 s

Structure (SMILES): Cc1cnc(CCC2CCCN2C(=O)CC(F)(F)F)n1C(C)C (stereo not given)
- RP-LC retention time: 600 s

Structure (SMILES): O=C(COc1ccc(F)cc1)NCc1ccc2c(c1)OCCCO2
- RP-LC retention time: 853 s

Structure (SMILES): CCC(=O)N1CCc2[nH]nc(C(=O)NCCCc3ccccc3)c2C1
- RP-LC retention time: 709 s

Structure (SMILES): CC1(C(=O)NCc2ccccc2)CCCN(C(=O)Nc2ccccc2Br)C1 (stereo not given)
- RP-LC retention time: 947 s

Structure (SMILES): CCN1C(=O)COc2ccc(-c3noc(-c4cccc5[nH]ccc45)n3)cc21
- RP-LC retention time: 998 s

Structure (SMILES): Cc1nc2c(c(Nc3cc(C(=O)O)ccc3C)n1)CCC2
- RP-LC retention time: 584 s

Structure (SMILES): Cc1ccc(CNC(=O)c2ccc3c(c2)CC(=O)N3C)cc1
- RP-LC retention time: 730 s

Structure (SMILES): Cc1ccc(C(=O)Nc2nc(-c3ccc4c(c3)N(C)C(=O)CO4)c(C)s2)cc1
- RP-LC retention time: 1030 s

Structure (SMILES): COCC1CN(S(=O)(=O)Cc2ccccc2F)CC12CCNCC2 (stereo not given)
- RP-LC retention time: 575 s

Structure (SMILES): Cc1ccc(-c2nc(N)n(C(=O)C3CC3)n2)cc1C
- RP-LC retention time: 962 s

Structure (SMILES): O=C(Nc1nnc(SCc2nnc(-c3ccccc3)o2)s1)c1ccc(Br)o1
- RP-LC retention time: 870 s

Structure (SMILES): CCOC(=O)c1noc2nc(C)nc(Nc3cccc(OC)c3)c12
- RP-LC retention time: 801 s

Structure (SMILES): Cc1ccc(S(=O)(=O)N2C(=O)CCC2C(=O)NCc2nc(-c3cccc(C)c3)no2)cc1 (stereo not given)
- RP-LC retention time: 910 s

Structure (SMILES): COC(=O)c1ccc2c(=O)n(Cc3ccc(F)cc3)c(N3CCC(C(N)=O)CC3)nc2c1
- RP-LC retention time: 777 s

Structure (SMILES): Cc1ccc(CNC(=O)NCCn2cnc3cc(C(=O)NC4CCCC4)ccc32)cc1
- RP-LC retention time: 652 s

Structure (SMILES): O=C(Cc1csc(Nc2ncccn2)n1)Nc1ccc2c(c1)Cc1ccccc1-2
- RP-LC retention time: 845 s

Structure (SMILES): O=C(NCCCN1CCOCC1)C1CCc2sc(C(=O)N3CCCCCC3)cc2C1 (stereo not given)
- RP-LC retention time: 560 s

Structure (SMILES): Cc1cc(C)c2c(N3CCOCC3)nc(C(=O)NCc3cccc(F)c3)nc2n1
- RP-LC retention time: 639 s

Structure (SMILES): CC(=O)N1CCc2cc(N3CC(C(=O)NCc4ccccc4)CC3=O)ccc21 (stereo not given)
- RP-LC retention time: 671 s

Structure (SMILES): O=C(CCS(=O)(=O)c1ccccc1)Nc1ccc(-c2ccn[nH]2)cc1
- RP-LC retention time: 648 s

Structure (SMILES): CCc1ccc(N2CC(c3noc(-c4ccccc4Cl)n3)CC2=O)cc1 (stereo not given)
- RP-LC retention time: 1050 s

Structure (SMILES): CCn1c(C(=O)N(C)c2ccc(Br)cc2)cc2c(=O)oc3ccccc3c21
- RP-LC retention time: 1030 s

Structure (SMILES): CC(C)CNC(=O)N1CCC(c2noc(-c3ccccc3)n2)C1 (stereo not given)
- RP-LC retention time: 846 s

Structure (SMILES): O=C(CNC(=O)c1cccs1)Nc1nc2ccccc2[nH]1
- RP-LC retention time: 599 s

Structure (SMILES): O=C(O)c1nnn(-c2cc(F)cc(F)c2)c1-c1ccccn1
- RP-LC retention time: 680 s

Structure (SMILES): Cc1ccc(C(=O)NC2CCN(c3cc(-c4ccccc4)[nH]n3)C2)s1 (stereo not given)
- RP-LC retention time: 708 s

Structure (SMILES): COCCN1C(=O)Cc2ccccc2C1C(=O)N1CCN(c2cccc(Cl)c2)CC1 (stereo not given)
- RP-LC retention time: 849 s

Structure (SMILES): CCOC(=O)c1nc(Nc2cc(C)ccc2C)c2ccccc2n1
- RP-LC retention time: 870 s

Structure (SMILES): Cc1cc2n(n1)CCC(=O)N2CCCC(=O)NCCc1cccs1
- RP-LC retention time: 648 s

Structure (SMILES): COc1ccccc1-c1csc(-c2nnn(-c3ccc(C)c(C)c3)c2N)n1
- RP-LC retention time: 1220 s

Structure (SMILES): CN(C)c1ccc(NC(=O)Cn2nc3c(Oc4ccccc4Cl)nccn3c2=O)cc1
- RP-LC retention time: 676 s

Structure (SMILES): c1cc(-c2nc(-c3ccc4c(c3)nnn4CCN3CCCCC3)no2)ccn1
- RP-LC retention time: 599 s

Structure (SMILES): Cc1ccc(C)c(CN2CCC(CNC(=O)C3CCN(c4cc(=O)n(C)c(=O)n4C)CC3)CC2)c1
- RP-LC retention time: 618 s

Structure (SMILES): Cc1ccc(S(=O)(=O)NCC(c2ccccc2)N(C)C)cc1 (stereo not given)
- RP-LC retention time: 642 s

Structure (SMILES): CCc1ccc(N2CCC(C(=O)NCCc3c[nH]c4ccc(Cl)cc34)C2=O)cc1 (stereo not given)
- RP-LC retention time: 1020 s

Structure (SMILES): CN1C(=O)COc2cc(-c3noc(C(=O)NC4CC4)n3)ccc21
- RP-LC retention time: 718 s

Structure (SMILES): CCOC(=O)c1noc2ncnc(Nc3ccc(CN4CCN(CC)CC4)cc3)c12
- RP-LC retention time: 638 s

Structure (SMILES): O=C(c1ccccc1Cl)N1CCC2(CC1)OCC(C(=O)N1CCOCC1)N2C(=O)c1ccccc1 (stereo not given)
- RP-LC retention time: 656 s

Structure (SMILES): CCCc1noc(-c2cccnc2N2CCCN(Cc3ccccc3Cl)CC2)n1
- RP-LC retention time: 737 s

Structure (SMILES): COc1cccc(-c2nnc(Cc3nc(-c4cccc(Br)c4)no3)o2)c1
- RP-LC retention time: 1090 s

Structure (SMILES): CCOc1ccc(N(C)C(=O)C2CCN(S(=O)(=O)c3ccc4c(c3)NC(=O)CO4)CC2)cc1
- RP-LC retention time: 784 s

Structure (SMILES): CCn1nc(C)cc1C(=O)N(Cc1ccccn1)c1nc2c(OC)ccc(OC)c2s1
- RP-LC retention time: 883 s

Structure (SMILES): O=C1C(=C2C=C(c3ccccc3)OC3=C2CCCC3)C(=O)c2ccccc21
- RP-LC retention time: 1150 s

Structure (SMILES): Cc1cc(NC(=O)c2sc(NCc3ccco3)nc2C)ccc1Cl
- RP-LC retention time: 956 s

Structure (SMILES): Cc1ccc(C)c(N2CCN(c3ccnc(SCC(=O)NCc4ccccc4)n3)CC2)c1
- RP-LC retention time: 858 s

Structure (SMILES): Cc1ccc(NC(=O)Cn2ncc3c(c2=O)N(CC2CC2)C(=O)CS3)c(C)c1
- RP-LC retention time: 782 s

Structure (SMILES): CCCc1noc(-c2cccnc2N2CCCN(Cc3cccc(C(F)(F)F)c3)CC2)n1
- RP-LC retention time: 785 s

Structure (SMILES): C[C@H](CSC(=O)c1ccccc1)C(=O)N1c2ccccc2C[C@H]1C(=O)O
- RP-LC retention time: 877 s

Structure (SMILES): Cc1cccc(OCC(O)Cn2c(C3CC3)nc3ccccc32)c1 (stereo not given)
- RP-LC retention time: 685 s

Structure (SMILES): CN1c2cc(C(=O)NCc3ccc(F)cc3F)ccc2C(=O)N2CCCCC21 (stereo not given)
- RP-LC retention time: 813 s

Structure (SMILES): CC(C)COC(=O)NCCc1nc2ccccc2[nH]1
- RP-LC retention time: 556 s

Structure (SMILES): O=C(COc1ccccc1F)Nc1ccc(Cl)c(N2CCCS2(=O)=O)c1
- RP-LC retention time: 791 s

Structure (SMILES): CCCn1ccc2oc(C)c(C(=O)NCc3ccc(Cl)cc3)c2c1=O
- RP-LC retention time: 814 s

Structure (SMILES): O=S(=O)(Nc1cccn2c(C3CCC3)nnc12)c1ccc2c(c1)CCCC2
- RP-LC retention time: 933 s

Structure (SMILES): COc1ccc(S(=O)(=O)N2CCCC(C(=O)NCCO)C2)cc1OC (stereo not given)
- RP-LC retention time: 597 s

Structure (SMILES): CC(=O)N1CCc2sc(C(=O)N3CCN(c4ccccn4)CC3)cc2C1
- RP-LC retention time: 575 s

Structure (SMILES): CCCn1cnc2cc(-c3noc(COc4ccc(F)cc4)n3)ccc21
- RP-LC retention time: 787 s

Structure (SMILES): CCCC(NC(=O)c1ccncc1)C(=O)Nc1nc2ccccc2[nH]1 (stereo not given)
- RP-LC retention time: 602 s

Structure (SMILES): COC(=O)c1ncn2c1C(=O)N(CCC1=CCCCC1)C(C)(C(=O)NCc1ccccc1)C2 (stereo not given)
- RP-LC retention time: 821 s

Structure (SMILES): CCN1C(=O)COc2ccc(-c3noc(/C=C/c4ccccc4)n3)cc21
- RP-LC retention time: 1170 s

Structure (SMILES): O=C(NC1CCCCCC1)c1csc(-c2ccc(N3CCOCC3)nc2)n1
- RP-LC retention time: 991 s

Structure (SMILES): CCN1C(=O)c2cccnc2Sc2cc(CNC(=O)Cc3ccccc3F)ccc21
- RP-LC retention time: 767 s

— the METLIN SMRT retention time set (Domingo-Almenara et al. 2019)
